# From PubChem BioAssay (NCI)
#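 96-well plates; 48 h exposure; 5 concentrations. Endpoints by linear interpolation between flanking doses. Not reached: highest tested concentration assigned. TGI: concentration producing complete growth inhibition.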
# How the values were obtained:
# Assay in all cases: NCI-60 cell line screen, 48 h
# 786-0 renal = tested on: 786-0 renal
# A498 renal = tested on: A498 renal
# A549 NSCLC = tested on: A549 NSCLC
# ACHN renal = tested on: ACHN renal
# BT-549 breast = tested on: BT-549 breast
# CAKI-1 renal = tested on: CAKI-1 renal
# CCRF-CEM leukemia = tested on: CCRF-CEM leukemia
# COLO 205 colon = tested on: COLO 205 colon
# DU-145 prostate = tested on: DU-145 prostate
# EKVX NSCLC = tested on: EKVX NSCLC
# HCT-116 colon = tested on: HCT-116 colon
# HCT-15 colon = tested on: HCT-15 colon
# HOP-62 NSCLC = tested on: HOP-62 NSCLC
# HOP-92 NSCLC = tested on: HOP-92 NSCLC
# HS 578T breast = tested on: HS 578T breast
# HT29 colon = tested on: HT29 colon
# IGROV1 ovarian = tested on: IGROV1 ovarian
# K-562 leukemia = tested on: K-562 leukemia
# KM12 colon = tested on: KM12 colon
# LOX IMVI melanoma = tested on: LOX IMVI melanoma
# M14 melanoma = tested on: M14 melanoma
# MALME-3M melanoma = tested on: MALME-3M melanoma
# MCF7 breast = tested on: MCF7 breast
# MDA-MB-231 breast = tested on: MDA-MB-231 breast
# MDA-MB-435 = tested on: MDA-MB-435
# MDA-N = tested on: MDA-N
# NCI-H226 lung = tested on: NCI-H226 lung
# NCI-H23 lung = tested on: NCI-H23 lung
# NCI-H460 lung = tested on: NCI-H460 lung
# NCI-H522 lung = tested on: NCI-H522 lung
# NCI/ADR-RES ovarian = tested on: NCI/ADR-RES ovarian
# OVCAR-3 ovarian = tested on: OVCAR-3 ovarian
# OVCAR-4 ovarian = tested on: OVCAR-4 ovarian
# OVCAR-5 ovarian = tested on: OVCAR-5 ovarian
# OVCAR-8 ovarian = tested on: OVCAR-8 ovarian
# PC-3 prostate = tested on: PC-3 prostate
# RPMI-8226 leukemia = tested on: RPMI-8226 leukemia
# RXF 393 renal = tested on: RXF 393 renal
# SF-268 CNS = tested on: SF-268 CNS
# SF-295 CNS = tested on: SF-295 CNS
# SF-539 CNS = tested on: SF-539 CNS
# SK-MEL-2 melanoma = tested on: SK-MEL-2 melanoma
# SK-MEL-28 melanoma = tested on: SK-MEL-28 melanoma
# SK-MEL-5 melanoma = tested on: SK-MEL-5 melanoma
# SK-OV-3 ovarian = tested on: SK-OV-3 ovarian
# SN12C renal = tested on: SN12C renal
# SNB-19 CNS = tested on: SNB-19 CNS
# SNB-75 CNS = tested on: SNB-75 CNS
# SW-620 colon = tested on: SW-620 colon
# T-47D breast = tested on: T-47D breast
# TK-10 renal = tested on: TK-10 renal
# U251 CNS = tested on: U251 CNS
# UACC-257 melanoma = tested on: UACC-257 melanoma
# UACC-62 melanoma = tested on: UACC-62 melanoma
# UO-31 renal = tested on: UO-31 renal
# HCC-2998 colon = tested on: HCC-2998 colon
# MOLT-4 leukemia = tested on: MOLT-4 leukemia
# SR leukemia = tested on: SR leukemia
compound,measurement,setting,value
CCc1ncnc2cc(OCC3CO3)c(OC)cc12 (stereo not given),TGI,786-0 renal,20.7 µM
same,TGI,A498 renal,58.1 µM
same,TGI,A549 NSCLC,> 100 µM
same,TGI,ACHN renal,21.6 µM
same,TGI,BT-549 breast,15.1 µM
same,TGI,CAKI-1 renal,> 100 µM
same,TGI,CCRF-CEM leukemia,27.2 µM
same,TGI,COLO 205 colon,21.8 µM
same,TGI,DU-145 prostate,> 100 µM
same,TGI,EKVX NSCLC,> 100 µM
same,TGI,HCT-116 colon,> 33.7 µM
same,TGI,HCT-15 colon,34.9 µM
same,TGI,HOP-62 NSCLC,38.7 µM
same,TGI,HOP-92 NSCLC,26.7 µM
same,TGI,HS 578T breast,42 µM
same,TGI,HT29 colon,> 100 µM
same,TGI,IGROV1 ovarian,6.8 µM
same,TGI,K-562 leukemia,> 80.3 µM
same,TGI,KM12 colon,49.3 µM
same,TGI,LOX IMVI melanoma,> 46.9 µM
same,TGI,M14 melanoma,23.8 µM
same,TGI,MALME-3M melanoma,42 µM
same,TGI,MCF7 breast,> 42.7 µM
same,TGI,MDA-MB-231 breast,60.9 µM
same,TGI,MDA-MB-435,21.7 µM
same,TGI,MDA-N,21.8 µM
same,TGI,NCI-H226 lung,> 100 µM
same,TGI,NCI-H23 lung,16.2 µM
same,TGI,NCI-H460 lung,43.8 µM
same,TGI,NCI-H522 lung,9.94 µM
same,TGI,NCI/ADR-RES ovarian,> 100 µM
same,TGI,OVCAR-3 ovarian,> 100 µM
same,TGI,OVCAR-4 ovarian,24.7 µM
same,TGI,OVCAR-5 ovarian,> 100 µM
same,TGI,OVCAR-8 ovarian,14.3 µM
same,TGI,PC-3 prostate,> 100 µM
same,TGI,RPMI-8226 leukemia,5.38 µM
same,TGI,RXF 393 renal,18.7 µM
same,TGI,SF-268 CNS,> 100 µM
same,TGI,SF-295 CNS,30.3 µM
same,TGI,SF-539 CNS,25.2 µM
same,TGI,SK-MEL-2 melanoma,12.4 µM
same,TGI,SK-MEL-28 melanoma,37.4 µM
same,TGI,SK-MEL-5 melanoma,21.9 µM
same,TGI,SK-OV-3 ovarian,73.6 µM
same,TGI,SN12C renal,16.7 µM
same,TGI,SNB-19 CNS,> 100 µM
same,TGI,SNB-75 CNS,53.7 µM
same,TGI,SW-620 colon,> 50.8 µM
same,TGI,T-47D breast,> 100 µM
same,TGI,TK-10 renal,69.5 µM
same,TGI,U251 CNS,> 100 µM
same,TGI,UACC-257 melanoma,52.9 µM
same,TGI,UACC-62 melanoma,18.4 µM
same,TGI,UO-31 renal,18.4 µM
O=C1C2CC=CCC2C(=O)N1n1c(Cc2ccccc2)n[nH]c1=O (stereo not given),TGI,786-0 renal,> 100 µM
same,TGI,A498 renal,> 100 µM
same,TGI,A549 NSCLC,> 100 µM
same,TGI,ACHN renal,> 100 µM
same,TGI,BT-549 breast,> 100 µM
same,TGI,CAKI-1 renal,> 100 µM
same,TGI,CCRF-CEM leukemia,> 100 µM
same,TGI,COLO 205 colon,> 100 µM
same,TGI,EKVX NSCLC,> 100 µM
same,TGI,HCC-2998 colon,> 100 µM
same,TGI,HCT-116 colon,> 100 µM
same,TGI,HCT-15 colon,> 100 µM
same,TGI,HOP-62 NSCLC,> 100 µM
same,TGI,HOP-92 NSCLC,> 100 µM
same,TGI,HS 578T breast,> 100 µM
same,TGI,HT29 colon,> 100 µM
same,TGI,IGROV1 ovarian,> 100 µM
same,TGI,K-562 leukemia,> 100 µM
same,TGI,KM12 colon,> 100 µM
same,TGI,LOX IMVI melanoma,> 100 µM
same,TGI,M14 melanoma,> 100 µM
same,TGI,MALME-3M melanoma,> 100 µM
same,TGI,MCF7 breast,> 100 µM
same,TGI,MDA-MB-231 breast,> 100 µM
same,TGI,MDA-MB-435,> 100 µM
same,TGI,MDA-N,> 100 µM
same,TGI,MOLT-4 leukemia,> 100 µM
same,TGI,NCI-H226 lung,> 100 µM
same,TGI,NCI-H23 lung,> 100 µM
same,TGI,NCI-H460 lung,> 100 µM
same,TGI,NCI-H522 lung,> 100 µM
same,TGI,NCI/ADR-RES ovarian,> 100 µM
same,TGI,OVCAR-3 ovarian,> 100 µM
same,TGI,OVCAR-4 ovarian,> 100 µM
same,TGI,OVCAR-5 ovarian,> 100 µM
same,TGI,OVCAR-8 ovarian,> 100 µM
same,TGI,PC-3 prostate,> 100 µM
same,TGI,RPMI-8226 leukemia,> 100 µM
same,TGI,RXF 393 renal,> 100 µM
same,TGI,SF-268 CNS,> 100 µM
same,TGI,SF-295 CNS,> 100 µM
same,TGI,SF-539 CNS,> 100 µM
same,TGI,SK-MEL-2 melanoma,> 100 µM
same,TGI,SK-MEL-5 melanoma,> 100 µM
same,TGI,SK-OV-3 ovarian,> 100 µM
same,TGI,SN12C renal,> 100 µM
same,TGI,SNB-19 CNS,> 100 µM
same,TGI,SR leukemia,> 100 µM
same,TGI,SW-620 colon,> 100 µM
same,TGI,T-47D breast,> 100 µM
same,TGI,TK-10 renal,> 100 µM
same,TGI,U251 CNS,> 100 µM
same,TGI,UACC-257 melanoma,> 100 µM
same,TGI,UACC-62 melanoma,> 100 µM
same,TGI,UO-31 renal,> 100 µM
